Assay results reported in patent publication US8377948B2, “Antitumor agents and methods of their use” (The Ohio State University Research Foundation, priority 2004, dated 2013).

test system: PC-3 cells; assay: MTT cell viability assay, PC-3 cells in 10% FBS medium; type: cell-based, human; details: Homo sapiens, PC-3, 48 h, RPMI 1640 with 10% FBS, means ± S.D. (n = 6)
Description: PC-3 (p53−/−) human androgen-nonresponsive prostate cancer cells were purchased from the American Type Tissue Collection (Manassas, Va.). Cells were cultured in RPMI 1640 medium (Gibco, Grand Island, N.Y.) supplemented with 10% fetal bovine serum (FBS; Gibco) at 37° C. in a humidified incubator containing 5% CO2.
Effect of the test agent on cell viability was assessed by the MTT {[3-(4,5-dimethylthiazol-2-yl)-2,5-diphenyl-2H-tetrazolium bromide]} assay in 96-well, flat-bottomed plates, in which 8,000 PC-3 or DU-145 cells/well were seeded. Cells were exposed to the test agent at the indicated concentrations, in six replicates, in 10% FBS-supplemented-RPMI-1640 medium at 37° C. in 5% CO2 for 48 hr. The medium was removed and replaced by 150 μL of 0.5 mg/mL of MTT in RPMI-1640 medium, and cells were incubated in the CO2 incubator at 37° C. for 2 h. Supernatants were removed from the wells, and the reduced MTT dye was solubilized with 200 μL/well DMSO. Absorbance was determined on a plate reader at 570 nm.
All compounds were evaluated for their ability to induce apoptotic death in human androgen-independent PC-3 prostate cancer in RPMI 1640 medium containing 10% fetal bovine serum (FBS). For representative compounds tested in DU-145 and LNCaP prostate cancer cells, the IC50 values for inhibiting cell proliferation were similar in these three cell lines irrespective of differences in androgen sensitivity, PTEN mutation, the functional status of p53 and Rb, and other biomarkers.

| IC50 | SMILES |
| --- | --- |
| 3.3 ± 0.3 µM | COc1cc2nc(N3CCN(S(=O)(=O)c4ccc(-c5ccc(C(F)(F)F)cc5)cc4)CC3)nc(N)c2cc1OC [Compound 37, 6,7-Dimethoxy-2-[4-(4′-trifluoromethyl-biphenyl-4-sulfonyl)-piperazin-1-yl]-quinazolin-4-yl-amine] |
| 7.2 ± 0.5 µM | COc1cc2nc(N3CCN(S(=O)(=O)c4ccc(-c5ccc(S(C)(=O)=O)cc5)cc4)CC3)nc(N)c2cc1OC [Compound 38, 2-[4-(4′-Methanesulfonyl-biphenyl-4-sulfonyl)-piperazin-1-yl]-6,7-dimethoxy-quinazolin-4-ylamine] |
| 3.4 ± 0.2 µM | CCCCc1ccc(-c2ccc(S(=O)(=O)N3CCN(c4nc(N)c5cc(OC)c(OC)cc5n4)CC3)cc2)cc1 [Compound 39, 2-[4-(4′-Butyl-biphenyl-4-sulfonyl)-piperazin-1-yl]-6,7-dimethoxy-quinazolin-4-yl-amine] |
| 10 ± 2 µM | COc1cc2nc(N3CCN(S(=O)(=O)c4ccc(-c5ccc(C(C)(C)C)cc5)cc4)CC3)nc(N)c2cc1OC [Compound 40, 2-[4-(4′-tert-Butyl-biphenyl-4-sulfonyl)-piperazin-1-yl]-6,7-dimethoxy-quinazolin-4-yl-amine] |
| 3.3 ± 0.4 µM | C=CCOc1cc2nc(N3CCN(S(=O)(=O)c4ccc(-c5ccccc5)cc4)CC3)nc(N)c2cc1OCC=C [Compound 43, 6,7-Bis-allyloxy-2-[4-(biphenyl-4-sulfonyl)-piperazin-1-yl]-quinazolin-4-ylamine] |
| 24 µM | CC(C)Oc1cc2nc(N3CCN(S(=O)(=O)c4ccc(-c5ccccc5)cc4)CC3)nc(N)c2cc1OC(C)C [Compound 45, 2-[4-(Biphenyl-4-sulfonyl)-piperazin-1-yl]-6,7-diisopropoxy-quinazolin-4-yl-amine] |

| SMILES | IC50 |
| --- | --- |
| CCCCOc1cc2nc(N3CCN(S(=O)(=O)c4ccc(-c5ccccc5)cc4)CC3)nc(N)c2cc1OCCCC [Compound 46, 2-[4-(Biphenyl-4-sulfonyl)-piperazin-1-yl]-6,7-dibutoxy-quinazolin-4-ylamine] | 3.5 ± 0.4 µM |
